The results in this text go back to ChEMBL document CHEMBL1125293 (J Med Chem, 1992).

Bounds are passed on as bounds.

The target of the first test is T1, Substance-P receptor (Rattus norvegicus, UniProt P14600). The format is cell membranes, Membrane.
T1 sequence (P14600 whole entry): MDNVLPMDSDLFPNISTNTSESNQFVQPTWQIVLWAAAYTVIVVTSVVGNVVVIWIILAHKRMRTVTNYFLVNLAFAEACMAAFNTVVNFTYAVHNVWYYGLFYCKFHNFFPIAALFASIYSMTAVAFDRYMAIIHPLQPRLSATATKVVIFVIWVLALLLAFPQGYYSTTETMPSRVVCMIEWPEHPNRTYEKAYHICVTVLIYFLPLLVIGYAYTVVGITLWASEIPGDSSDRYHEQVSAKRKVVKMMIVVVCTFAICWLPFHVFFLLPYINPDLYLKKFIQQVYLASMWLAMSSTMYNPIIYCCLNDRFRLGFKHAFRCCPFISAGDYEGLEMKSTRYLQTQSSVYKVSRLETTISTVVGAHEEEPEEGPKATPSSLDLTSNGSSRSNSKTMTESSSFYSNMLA
Regarding `C#C[C@]1(O)CCC2C3CC[C@H]4Cc5nc6[nH]c7ccccc7c6cc5C[C@]4(C)C3CC[C@@]21C` (stereo not given in full), the IC50 was > 10 µM.
In turn, `C[C@]12Cc3cn4c(nc3CC1CCC1C2CC[C@@]2(C)C1CC[C@]2(C)O)nc1ccccc14` (stereo not given in full) gave an IC50 of 0.2 µM.
The same measure, in the same setting: the figure for `C#C[C@]1(O)CCC2C3CC[C@H]4Cc5nc6cc7ccccc7n6cc5C[C@]4(C)C3CC[C@@]21C` (stereo not given in full) is > 10 µM.
On the same count and under the same terms, under `COC(=O)CCC(C)[C@H]1CCC2C3C(C[C@H](O)[C@@]21C)[C@@]1(C)Cc2cn4c(nc2CC1C[C@H]3O)nc1ccccc14` (stereo not given in full) stands > 2.5 µM; under `Cc1cc(C)n2c(n1)nc1ccccc12`, > 10 µM.
Still for that read-out and setting: the figure for `C=C[C@]1(O)CCC2C3CCC4Cc5nc6nc7ccccc7n6cc5C[C@]4(C)C3CC[C@@]21C` (stereo not given in full) is 0.086 µM.
`C[C@]12Cc3cn4c(nc3CC1CCC1C2CC[C@@]2(C)C1CC[C@@H]2O)nc1ccccc14` (stereo not given in full) showed an IC50 of 0.22 µM.
The same measure, in the same setting: under `C[C@@]12CCCC1C1CCC3Cc4nc5nc6ccccc6n5cc4C[C@]3(C)C1CC2` (stereo not given in full) stands > 10 µM.
Still for that read-out and setting: under `C#C[C@]1(O)CCC2C3CC[C@H]4Cc5nc6nc7cc8ccccc8cc7n6cc5C[C@]4(C)C3CC[C@@]21C` (stereo not given in full) stands 0.32 µM; under `C=CC1=CCCC2Cc3nc4nc5ccccc5n4cc3C[C@]12C` (stereo not given in full), > 10 µM; under `C#C[C@]1(OC)CCC2C3CCC4Cc5nc6nc7ccccc7n6cc5C[C@]4(C)C3CC[C@@]21C` (stereo not given in full), > 10 µM.
The same measure, in the same setting: the figure for `CC(CCC(=O)O)[C@H]1CCC2C3C(C[C@H](O)[C@@]21C)[C@@]1(C)Cc2cn4c(nc2CC1C[C@H]3O)nc1ccccc14` (stereo not given in full) is > 10 µM.

In the next test the target is T1, Substance-P receptor. In words: Inhibition of [125]I-Bolton Hunter Substance P([125]I-BHSP) binding to Tachykinin receptor 1 from rat forebrain membranes. The format is cell membranes, Membrane.
For the molecule `C[C@]12Cc3cn4c(nc3CC1CCC1C2CC[C@]2(C)C(=O)CCC12)nc1ccccc14` (stereo not given in full), the IC50 is > 10 µM.
The same measure, in the same setting: under `CC#C[C@]1(O)CCC2C3CCC4Cc5nc6nc7ccccc7n6cc5C[C@]4(C)C3CC[C@@]21C` (stereo not given in full) stands 0.18 µM; under `COC(=O)[C@H]1CCC2C3CCC4Cc5nc6nc7ccccc7n6cc5C[C@]4(C)C3CC[C@@]21C` (stereo not given in full), > 10 µM.
Same read-out and setting: under `C#CC[C@]1(O)CCC2C3CCC4Cc5nc6nc7ccccc7n6cc5C[C@]4(C)C3CC[C@@]21C` (stereo not given in full) stands 0.32 µM; under `C[C@]12Cc3cn4c(nc3CC1CCC1C2CC[C@@]2(C)C1CC[C@@]2(O)c1ccccc1)nc1ccccc14` (stereo not given in full), > 10 µM.
As for `c1ccc2c(c1)nc1nc3c(cn12)CCCC3`, the IC50 was > 10 µM.
Take `CC(C)CCCC(C)[C@@H]1CCC2C3CCC4Cc5nc6nc7ccccc7n6cc5C[C@]4(C)C3CC[C@@]21C` (stereo not given in full): the 50% inhibitory concentration (IC50) was > 10 µM.
The same measure, in the same setting: the figure for `C[C@]12CCC3C(CC[C@@H]4Cc5nc6nc7ccccc7n6cc5C[C@]34C)C1CC[C@@H]2O` (stereo not given in full) is > 10 µM.

In general, IC50 refers to the midpoint of a concentration-inhibition curve. Low values mean inhibition by little substance, high ones a need for much substance.
